Measurements as given in ChEMBL document CHEMBL1201862, “PubChem BioAssay data set” (2004).
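All cell lines were grown in 96-well plates and treated with compound for 48 hours. The concentration for 50% growth inhibition is given as GI50.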 The source made the active and inactive calls. Cut-off read from the data, not from the text of the source: active = GI50 up to about 1.1 µM and inactive = higher.

Tests used:
Assay in all cases: DTP human tumour cell line panel, 48 h
786-0 = system: 786-0
A549 = system: A549
ACHN = system: ACHN
EKVX = system: EKVX
HT-29 = system: HT-29
IGROV-1 = system: IGROV-1
K562 = system: K562
MCF7 = system: MCF7
MOLT-4 = system: MOLT-4
NCI-H226 = system: NCI-H226
NCI-H23 = system: NCI-H23
NCI-H460 = system: NCI-H460
NCI/ADR-RES = system: NCI/ADR-RES
SK-MEL-28 = system: SK-MEL-28
SK-MEL-2 = system: SK-MEL-2
SN12C = system: SN12C
SNB-75 = system: SNB-75
SW-620 = system: SW-620
HL-60 = system: HL-60

Measured: GI50

COC(=O)CNC(=O)CNC(=O)CSc1nnc(COc2ccc(Cl)cc2)n1-c1ccccc1
inactive: 786-0 > 100 µM | A549 > 100 µM | ACHN > 100 µM | EKVX > 100 µM | HT-29 > 100 µM | IGROV-1 17.9 µM | K562 30.1 µM | MCF7 > 100 µM | MOLT-4 36.6 µM | NCI-H226 > 100 µM | NCI-H23 > 100 µM | NCI-H460 62.8 µM | NCI/ADR-RES > 100 µM | SK-MEL-28 25.1 µM | SK-MEL-2 19.4 µM | SN12C > 100 µM | SNB-75 25.4 µM | SW-620 68.1 µM

COc1ccc(C2(c3ccc(OC)cc3)OC(=O)c3cccc4cccc2c34)cc1
inactive: 786-0 5.41 µM | A549 8.11 µM | ACHN 7.93 µM | EKVX 2.76 µM | HT-29 2.4 µM | IGROV-1 5.93 µM | K562 3.36 µM | MCF7 4.78 µM | MOLT-4 4.58 µM | NCI-H226 27.6 µM | NCI-H23 12.6 µM | NCI-H460 4.69 µM | NCI/ADR-RES 2.72 µM | SK-MEL-2 8 µM | SN12C 23.8 µM | SW-620 5.18 µM

CN(N=O)C(=N)NC(=O)c1ccccc1
inactive: 786-0 > 100 µM | A549 > 100 µM | ACHN > 100 µM | EKVX 61.2 µM | HT-29 > 100 µM | IGROV-1 > 100 µM | K562 > 100 µM | MCF7 54.7 µM | MOLT-4 > 100 µM | NCI-H226 > 100 µM | NCI-H23 > 100 µM | NCI-H460 19.3 µM | NCI/ADR-RES > 100 µM | SK-MEL-2 > 100 µM | SNB-75 51.5 µM | SW-620 > 100 µM

Clc1ccc(Nc2nn3c(CCCCCCCCc4nnc5sc(Nc6ccc(Cl)cc6)nn45)nnc3s2)cc1
inactive: 786-0 51.6 µM | A549 > 100 µM | ACHN > 100 µM | EKVX > 100 µM | HT-29 49.3 µM | K562 50.5 µM | MCF7 > 100 µM | MOLT-4 90.6 µM | NCI-H226 > 100 µM | NCI-H23 > 100 µM | NCI-H460 > 100 µM | NCI/ADR-RES > 100 µM | SK-MEL-28 > 100 µM | SK-MEL-2 > 100 µM | SN12C > 100 µM | SNB-75 23.3 µM | SW-620 > 100 µM

CCOP(=O)(Cc1nc(C#N)c(N)o1)OCC
inactive: 786-0 > 100 µM | ACHN > 100 µM | EKVX > 100 µM | HL-60 > 100 µM | HT-29 > 100 µM | IGROV-1 > 100 µM | K562 > 100 µM | MCF7 > 100 µM | MOLT-4 > 100 µM | NCI-H226 > 100 µM | NCI-H460 > 100 µM | SK-MEL-28 > 100 µM | SK-MEL-2 > 100 µM | SN12C > 100 µM | SW-620 > 100 µM

CC(C)C(C/C=C1/CC(CO)(COC(=O)C2CCCCC2)OC1=O)C(C)C (stereo unspecified)
inactive: 786-0 12.4 µM | A549 12.5 µM | ACHN 13.3 µM | EKVX 20 µM | HT-29 27.9 µM | IGROV-1 19.1 µM | K562 6.79 µM | MCF7 18.7 µM | MOLT-4 17.8 µM | NCI-H226 21.4 µM | NCI-H23 16.6 µM | NCI-H460 20.2 µM | NCI/ADR-RES 21.3 µM | SK-MEL-28 18.6 µM | SK-MEL-2 > 100 µM | SN12C 16.8 µM | SNB-75 13.8 µM | SW-620 22.3 µM

CC(=O)O[C@H]1CC[C@H]2[C@@H]3CCC4=CC(=O)C=C[C@]4(O)[C@H]3CC[C@]12C
inactive: 786-0 50.6 µM | A549 > 42 µM | ACHN > 84.5 µM | EKVX 31.7 µM | IGROV-1 55.1 µM | K562 7.66 µM | MCF7 26.7 µM | MOLT-4 8 µM | NCI-H226 16.6 µM | NCI-H23 9.91 µM | NCI-H460 32.2 µM | NCI/ADR-RES 12 µM | SK-MEL-28 28.2 µM | SK-MEL-2 22.1 µM | SN12C > 71.9 µM | SNB-75 14.7 µM | SW-620 25.5 µM

CC(C)=CCC[C@](C)(O[C@@H]1O[C@H](CO)[C@@H](O)[C@H](O)[C@H]1O)[C@H]1CC[C@]2(C)[C@@H]1[C@H](O)C[C@@H]1[C@@]3(C)CC[C@@H](O)C(C)(C)[C@@H]3[C@@H](O[C@@H]3O[C@H](CO)[C@@H](O)[C@H](O)[C@H]3O)C[C@]12C.C[C@@H]1O[C@@H](O[C@H]2[C@H](O[C@H]3C[C@]4(C)[C@H](C[C@H](O)[C@@H]5[C@@H]([C@@]6(C)CC[C@H](C(C)(C)O)O6)CC[C@]54C)[C@@]4(C)CC[C@H](O)C(C)(C)[C@H]34)O[C@H](CO)[C@@H](O)[C@@H]2O)[C@H](O)[C@H](O)[C@H]1O
inactive: 786-0 > 100 µM | A549 > 100 µM | ACHN > 100 µM | EKVX > 100 µM | HL-60 > 100 µM | HT-29 > 100 µM | IGROV-1 > 100 µM | K562 > 100 µM | MCF7 > 100 µM | MOLT-4 84.9 µM | NCI-H226 > 100 µM | NCI-H23 > 100 µM | NCI-H460 > 100 µM | SK-MEL-28 > 100 µM | SK-MEL-2 > 100 µM | SN12C > 100 µM | SNB-75 > 100 µM | SW-620 > 100 µM

CSc1cc(Cl)c(C)cc1S(=O)(=O)NC(=O)NNc1ccc(C)cc1
inactive: 786-0 > 100 µM | A549 > 100 µM | ACHN 30.7 µM | EKVX > 100 µM | HT-29 > 100 µM | IGROV-1 > 100 µM | K562 > 100 µM | MCF7 > 100 µM | MOLT-4 43 µM | NCI-H226 > 100 µM | NCI-H460 > 100 µM | NCI/ADR-RES 64.3 µM | SK-MEL-28 > 100 µM | SK-MEL-2 93.3 µM | SN12C > 100 µM | SNB-75 8.26 µM | SW-620 > 100 µM

Nc1nc(O)c2c(n1)NCN(CCCN1CCOCC1)C2
inactive: 786-0 > 100 µM | A549 > 100 µM | ACHN > 100 µM | EKVX > 100 µM | HT-29 > 100 µM | IGROV-1 > 100 µM | K562 > 100 µM | MCF7 > 100 µM | MOLT-4 46.7 µM | NCI-H226 > 100 µM | NCI-H23 > 100 µM | NCI-H460 > 100 µM | NCI/ADR-RES > 100 µM | SK-MEL-28 > 100 µM | SK-MEL-2 > 100 µM | SN12C > 100 µM | SW-620 > 100 µM

COc1ccc(-n2sc3ncc(C)cc3c2=O)cc1
inactive: 786-0 17.3 µM | A549 20.7 µM | ACHN 18.3 µM | EKVX 18.3 µM | HT-29 17.4 µM | IGROV-1 31.9 µM | K562 39 µM | MCF7 23.7 µM | MOLT-4 29.3 µM | NCI-H226 26.2 µM | NCI-H23 26.2 µM | NCI-H460 86.3 µM | NCI/ADR-RES 26.5 µM | SK-MEL-28 24.2 µM | SK-MEL-2 21.8 µM | SN12C 16.1 µM | SW-620 33.8 µM
